Assay results published in ChEMBL document CHEMBL5505955, “Exploring the potential of histone demethylase inhibition in multi-therapeutic approaches for cancer treatment” (Eur J Med Chem, 2024).
One block for each molecule: values may come before it.

Key:
[1] = target: T1, Amine oxidase [flavin-containing] A (Homo sapiens, UniProt P21397); assay: Inhibition of MAO-A (unknown origin) measured by MAO-GloTM method
T1 sequence (P21397 whole entry): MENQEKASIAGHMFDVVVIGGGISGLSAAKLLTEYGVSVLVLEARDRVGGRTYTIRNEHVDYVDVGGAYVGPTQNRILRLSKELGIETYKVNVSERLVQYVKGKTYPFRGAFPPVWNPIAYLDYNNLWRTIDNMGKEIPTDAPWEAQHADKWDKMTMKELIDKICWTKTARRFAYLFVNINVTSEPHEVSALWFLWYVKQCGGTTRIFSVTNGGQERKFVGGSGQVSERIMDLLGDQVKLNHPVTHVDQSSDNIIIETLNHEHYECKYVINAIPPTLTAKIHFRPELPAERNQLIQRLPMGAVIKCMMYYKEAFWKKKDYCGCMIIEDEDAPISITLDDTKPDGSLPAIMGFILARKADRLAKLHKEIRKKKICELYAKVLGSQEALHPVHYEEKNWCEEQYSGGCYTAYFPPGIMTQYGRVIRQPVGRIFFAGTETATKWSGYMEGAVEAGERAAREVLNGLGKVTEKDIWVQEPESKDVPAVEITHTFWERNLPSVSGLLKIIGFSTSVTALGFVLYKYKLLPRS

[2] = target: T2, Lysine-specific histone demethylase 1A (Homo sapiens, UniProt O60341); assay: Inhibition of human recombinant LSD1 incubated for 60 mins by fluorescence based analysis
MIA PaCa-2 = assay: Antiproliferative activity against human MIA PaCa-2 cells assessed as reduction in cell viability incubated for 72 hrs by MTT assay; assay type: functional, cell-based; details: MIA PaCa-2, 72 h
A2058 = assay: Antiproliferative activity against human A2058 cells assessed as reduction in cell viability incubated for 72 hrs by MTT assay; assay type: functional, cell-based; details: A2058, 72 h
HT-29 = assay: Antiproliferative activity against human HT-29 cells assessed as reduction in cell viability incubated for 72 hrs by MTT assay; assay type: functional, cell-based; details: HT-29, 72 h
A549 = assay: Antiproliferative activity against human A549 cells assessed as reduction in cell viability incubated for 72 hrs by MTT assay; assay type: functional, cell-based; details: A549, 72 h
Bel-7402 = assay: animal or person; details: Mus musculus, Bel-7402, po, 504 h, read-out: TGI
Description: Anticancer activity against human Bel-7402 cells xenografted in nude mouse model assessed as tumor growth inhibition at 60 mg/kg, IG administered for 21 days relative to control

Histone deacetylase 1 = Histone deacetylase 1 (Homo sapiens, UniProt Q13547); assay: Inhibition of HDAC1 (unknown origin)
[3] = target: T2, Lysine-specific histone demethylase 1A
Description: Inhibition of LSD1 (unknown origin)

NCI-H1975 = assay: cells; details: Homo sapiens

Sequence of Histone deacetylase 1 (Q13547 whole entry): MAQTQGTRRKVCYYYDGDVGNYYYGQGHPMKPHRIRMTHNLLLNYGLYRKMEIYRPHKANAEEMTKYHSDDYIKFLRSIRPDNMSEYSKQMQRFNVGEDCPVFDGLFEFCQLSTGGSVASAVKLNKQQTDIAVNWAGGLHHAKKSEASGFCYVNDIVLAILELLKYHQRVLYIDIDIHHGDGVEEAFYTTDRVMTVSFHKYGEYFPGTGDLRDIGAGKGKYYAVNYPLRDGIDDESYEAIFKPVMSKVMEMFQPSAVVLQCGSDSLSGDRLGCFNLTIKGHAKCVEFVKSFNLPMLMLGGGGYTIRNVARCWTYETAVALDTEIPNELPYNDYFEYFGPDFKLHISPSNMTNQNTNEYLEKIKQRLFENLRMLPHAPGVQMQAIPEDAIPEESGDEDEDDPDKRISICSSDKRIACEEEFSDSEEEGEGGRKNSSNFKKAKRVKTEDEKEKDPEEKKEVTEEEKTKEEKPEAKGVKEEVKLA

Compound: COC1=CC(=O)OC(/C=C/c2ccccc2)C1 (stereo unspecified)
IC50 [1]: 1.29 nM | IC50 [2]: 3850 nM

Compound: O=C(N/N=C/c1ccccc1O)c1cccc(Cl)c1
IC50 (MIA PaCa-2): 9500 nM | IC50 (A2058): 6500 nM | IC50 (HT-29): 950 nM | IC50 (A549): 2400 nM

Compound: COc1ccc(S(=O)(=O)N(CCSC(=S)N2CCN(C)CC2)c2cc(OC)c(OC)c(OC)c2)cc1
inhibition in vivo at 60 mg/kg (Bel-7402): 43%

Continued, values first:

IC50 (Histone deacetylase 1): 42.5 nM | IC50 [3]: 3850 nM
Compound: NC1CC1c1ccc(NC(=O)CCC(=O)NCCCNCCCCNCCCNC(=O)c2ccc(NC(=O)CCCCCCC(=O)NO)cc2)cc1 (stereo unspecified)

IC50 [3]: 1700 nM
Compound: O=C(O)c1ccc(CN2CCC(CN[C@@H]3C[C@H]3c3ccccc3)CC2)cc1 [GSK2879552]
